Like-named read-outs stand apart in the source and are kept apart here.
Tested on: Escherichia coli Tat pathway
Assay: Live cell assay: total mCherry fluorescence of cells producing spTorA-mCherry-SsrA (primary HTS assay)
Assay type: cell-based
Conditions: for IC50: read-out: IC50 (Live Cell Assay); for effect on synthesis of spTorA-mCherry-SsrA: appears to be a consequence of growth inhibition
Source text: Having obtained the calibration and validation data described in the previous sections, we next established the protocol for the HTS. Details are provided in the Materials and Methods section. Here, we briefly summarize the assay. A single colony of E. coli strain MC4100(DE3) containing plasmids encoding TatABC and spTorA-mCherry-SsrA was inoculated into LB and grown overnight. The next morning, cells were transferred to fresh media, the production of TatABC and spTorA-mCherry-SsrA was induced, and cultures were aliquoted onto plates with test compounds. NaSCN was included in control wells to simulate a hit. Cells were grown for 8 h, followed by incubation at 4°C overnight, and then read the next day. Setting the total cellular fluorescence obtained with spTorA-mCherry-H6 under Tat^++ conditions to 100%, spTorA-mCherry-SsrA yielded a total cellular fluorescence signal of 63±14%, consistent with SsrA-induced degradation of the mCherry protein. The total cellular fluorescence was further reduced to 36±14% in the presence of 30 mM NaSCN (simulated hit), and to 41±6% in the absence of TatABC, verifying the Δψ- and Tat-dependence of the fluorescence signal (Fig 4D).
A single colony of E. coli strain MC4100(DE3) (pTatABC-DUET1, pTorA-mCherry-SsrA) was inoculated into a 100 mL LB culture supplemented with Ap and Cm and grown at 37°C with shaking (250 rpm) overnight. Cells were harvested by centrifugation at 4,000g for 10 min at room temperature (RT), suspended in 10 mL fresh LB broth supplemented with Ap and Cm, and the optical density (A500) was determined. Simultaneously, 700 mL LB supplemented with 100 mM arabinose, 2 mM IPTG, 100 μg/mL Ap and 68 μg/mL Cm was filter-sterilized (0.22 μm), and then divided into 200 mL (A) and 500 mL (B) portions. Sterile NaSCN (30 mM final; 1.5 mL of 4 M NaSCN) was added to portion A, and an equal ratio of sterile water was added to portion B (3.75 mL). Media and cells were transferred to the HTS facility on ice.
A CyBi-Well vario pipetting workstation (CyBio, Jena, Germany) was used to dispense library compounds and cultures. Library compounds (1 μL) solubilized in DMSO were added to 384-well black, clear-bottomed plates (Greiner Bio-one, Germany) in columns 3 to 22 (320 wells/plate). For controls, DMSO (1 μL) was added to each well in columns 1, 2, […], to achieve DMSO uniformity across the plate. Both portions of LB media were inoculated with E. coli MC4100(DE3) (pTatABC-DUET1, pTorA-mCherry-SsrA) from the concentrated stock to a final A500 = 0.15. The media with 30 mM NaSCN (positive control, or simulated hit) was dispensed into each well of columns 1 and 24 (49 μL each). An equivalent volume of media without NaSCN was dispensed into each well of columns 2 to 23. Columns 2 and 23 lacked NaSCN and test compounds and served as negative controls. The first 12,800 compounds were screened at 5 μM (plates 1–40), and the remaining 38,800 compounds were screened at 20 μM (plates 41–162).
The plates containing cells and dispersed test compounds were grown with shaking (200 rpm) at 25°C for 8 h. Plates were individually mounted, not stacked, on a hollow plastic platform, allowing adequate air circulation. Following the 8 h incubation, plates were transferred to 4°C for 16 h. Each plate was covered with an empty plate to prevent condensation on the lid. […] Following the incubation, plates were read using a BMG Polarstar Omega plate reader (BMG Labtech, Ortenberg, Germany) to determine optical densities (A500) and mCherry fluorescence intensities (EX = 584 nm, EM = 620 nm).
Supplementary file pone.0149659.s003.tiff: S3 Fig IC50's for Hit Compound 181^JS. (A) The total cellular mCherry fluorescence (live cell assay; n = 1), (B) the in vitro NADH-dependent Tat transport efficiency of pre-SufI (n = 1), and (C) the maximum transmembrane electrical potential gradient (n = 1) were measured for a range of concentrations of compound 181^JS (S2E Fig). (D) SDS-PAGE gel showing in-gel fluorescence data used in (B). […]

[1] = mCherry fluorescence intensity during in vivo cell growth, Tat++ conditions, 384-well plate

Structure (SMILES) | IC50 (Escherichia coli) | other results
N#CC1c2ccccc2-n2nncc2CN1Cc1cc(Cl)cc(Cl)c1 (stereo not shown) [21^NIH, 5-[(3,5-dichlorophenyl)methyl]-4,6-dihydrotriazolo[1,5-a][1, 4]benzodiazepine-6-carbonitrile] |  | IC50 [1]: 13 µM
Cc1ccc(S(=O)(=O)/C=C/C#N)cc1 [Bay 11–7082] |  | effect on synthesis of spTorA-mCherry-SsrA (Tat++ conditions): inhibited synthesis
N#CC(C#N)=NNc1ccccc1Br [Compound 1, [(2-bromophenyl)hydrazono]malononitrile] | 6 µM | 
Oc1cc(Cl)ccc1Oc1ccc(Cl)cc1Cl [Compound 18^NIH, 5-Chloro-2-(2,4-dichlorophenoxy)phenol] | 2 µM | 
O=[N+]([O-])c1cc([N+](=O)[O-])c2ccccc2c1Cl [Compound 51, 1-chloro-2,4-dinitronaphthalene] | 20 µM | 
Fc1nc(F)c(F)c(NNC(=S)Nc2cccc(C(F)(F)F)c2)c1F [Compound 111, 1-[(2,3,5,6-tetrafluoropyridin-4-yl)amino]-3-[(3-trifluoromethyl)phenyl]thiourea] |  | IC50 [1]: 31 µM
FC(F)(F)c1cccc(-c2cccc3cnccc23)c1 [Compound 140, 5-[3-(trifluoromethyl)phenyl]isoquinoline] | 14 µM | 
O=C(Nc1cccc(C(F)(F)F)c1)Nc1ncc([N+](=O)[O-])s1 [Compound 181^JS, 1-(5-nitro-1,3-thiazol-2-yl)-3-[3-(trifluoromethyl)phenyl]urea] | 20 µM | 
O=[N+]([O-])c1ccc(O)c(-c2cccs2)c1 [Compound 202, 4-nitro-2-thiophen-2-ylphenol] | 5 µM | 
O=C1C=CC(=O)N1c1ccccc1 [N-phenylmaleimide] |  | effect on synthesis of spTorA-mCherry-SsrA (Tat++ conditions): inhibited synthesis
